In brackets after ≈: the same amount, converted by molar mass.
Experiments:
[1] = system: Primary human foreskin fibroblast cells (HFF); experiment: Cell proliferation assay (cytotoxicity) in HFF cells; format: cell-based; details: for CC50: Human foreskin fibroblast cells, reduces growth of uninfected cells by 50%
HSV-1 strain F = experiment: CPE inhibition, HSV-1 strain F in HEp-2 cells; as to Cytopathic Effect (CPE) Inhibition HSV-1 Strain F: key: +++ = Complete cytopathic effect; ++ = Moderate cytopathic effect; + = Minimum cytopathic effect; − = No cytopathic effect; format: cell-based, herpes simplex virus type 1; details: for Cytopathic Effect (CPE) Inhibition HSV-1 Strain F: conc. per compound (ng/ml)
Vero cells = experiment: Cytotoxic effect in Vero cell line; format: cell-based, African green monkey; details: Vero cell line
Method: Human laryngeal epithelial carcinoma cells (HEp-2, ATCC, Rockville, Md.) were used for testing of antiviral compounds by cytopathic effect (CPE) inhibition and plaque reduction assay. […] HEp-2, African green monkey kidney cells (Vero, ATCC), HFF and primary rabbit kidney cells were used to determine the cytotoxic effect of compounds of formula I. These cells were propagated in Dulbeco's modified Eagle's medium (DMEM) (Sigma, USA) supplemented with 10% inactivated fetal calf serum (FCS), 25 mM HEPES, 0.2% sodium bicarbonate and 1% penicillin/-streptomycin at 37° C. in the presence of 5% CO2.
HFF, Vero and HEp-2 cells were seeded in 24-well tissue culture plates at a concentration of […] in DMEM containing 10% FCS and incubated for 24 hours at 37° C. in the presence of 5% CO2. To the monolayer of these cells 0.5, 1.0, 1.5 and 2.0 ml of solution of antiviral compounds were added in the respective wells in duplicate and the cells were then incubated in a 5% CO2 incubator at 37° C. for 72 hours. The cells were observed daily for any change in morphology. […] At the end of this time, the media-drug solution was removed and the cells washed. One ml of 0.25% trypsin was added to each well and incubated until the cells start to come off of the plate. The cells-media mixture was then pipetted up and down several times to resuspend the cells and 0.2 ml of the cell suspension was added to 9.8 ml of trypan blue and cells were counted using hemocytometer. Each sample was counted three times with three replicate wells per sample.

HSV-2 strain G = experiment: CPE inhibition, HSV-2 strain G in HEp-2 cells; as to Cytopathic Effect (CPE) Inhibition HSV-2 Strain G: key: +++ = Complete cytopathic effect; ++ = Moderate cytopathic effect; + = Minimum cytopathic effect; − = No cytopathic effect; format: cell-based, herpes simplex virus type 2; details: for Cytopathic Effect (CPE) Inhibition HSV-2 Strain G: conc. per compound (ng/ml)
HFF cells = experiment: CC50 in HFF cells (Table 3); format: cell-based, human; details: HFF cells
Method: The cells were observed daily for any change in morphology. The rounding and lysis of cells were observed if the compound has cytotoxic effect. At the end of this time, the media-drug solution was removed and the cells washed. […] The cells-media mixture was then pipetted up and down several times to resuspend the cells and 0.2 ml of the cell suspension was added to 9.8 ml of trypan blue and cells were counted using hemocytometer. Each sample was counted three times with three replicate wells per sample.

HSV-1 (E377) = experiment: Cutaneous HSV-1 infection in guinea pigs, topical ointment; format: in vivo, guinea pig; details: topical ointment (2% betulin, 2% allobetulin, 5% Acyclovir) twice daily for 3 days
HSV-1 (strain F) = experiment: Plaque reduction assay, HSV-1 strain F in HEp-2 cells; format: cell-based, herpes simplex virus type 1
Method: HEp-2 cells were grown to monolayer in 24 well tissue culture plates in DMEM containing 10% fetal calf serum at 37° C. for 24-36 hours in the presence of 5% CO2. The monolayer of HEp-2 cells was infected with 0.1 ml of HSV- 1 (strain F) or HSV-2 (strain G) containing 100 pfu. The viruses were allowed to adsorb for 1 hour at 37° C. in the presence of 5% CO2. All wells containing virus infected cells except virus control were overlaid with 0.9 ml of DMEM and 1 ml of test compound. The virus control and cell control received DMEM only. All microtiter plates were incubated at 37° C. in the presence of 5% CO2 and observed twice daily for 72 hours for viral CPE. At the end of the experiment, plates were stained with 0.1% crystal violet and the results were quantified by counting plaque forming units.

[2] = Varicella-Zoster Virus section of Table 3
[3] = qualitative CPE inhibition assay

Row | Compound | CC50 ([1]; listed as Acyclovir ®) [ng/mL] | CC50 ([1]; listed as Acyclovir®) | Cytopathic Effect (CPE) Inhibition HSV-1 Strain F (HSV-1 strain F) | CC50 (Vero cells) [µg/mL] | Cytopathic Effect (CPE) Inhibition HSV-2 Strain G (HSV-2 strain G) | CC50 (HFF cells; [2]) [µg/mL] | effect on cutaneous HSV-1 infection (in words) (HSV-1 (E377)) | Plaque Reduction Assay Average pfu/10^5 Cells HSV-1 Strain F (HSV-1 (strain F); Conc. 12500 ng/ml, HSV-1 virus control 5) [pfu/10^5 Cells] | Plaque Reduction Assay Average pfu/10^5 Cells HSV-1 Strain F (HSV-1 (strain F); Conc. 12500 ng/ml, HSV-1 virus control 5, listed as Acyclovir®) | cytotoxicity (in words) ([1]; HFF cells) | Qualitative Cytotoxic Effect at 2.0 ml dose ([1]; HFF cells, solution conc. per compound (ng/ml) (Acyclovir 250), 2.0 ml dose) | CC50 [1] [ng/mL] | anti HSV-1 activity (in words) (HSV-1 strain F; [3]) | anti HSV-2 activity (in words) (HSV-2 strain G; [3]) | CC50 (HFF cells; Human Cytomegalovirus section of Table 3) [µg/mL] | Plaque Reduction Assay Average pfu/10^5 Cells HSV-1 Strain F (HSV-1 (strain F); conc. per compound as in column Conc. (ng/ml), HSV-1 virus control 5) [pfu/10^5 Cells] | Plaque Reduction Assay Average pfu/10^5 Cells HSV-1 Strain F (HSV-1 (strain F); conc. per compound as in column Conc. (ng/ml), HSV-1 virus control 5, listed as betulin)
1 | acycloguanosine [Acyclovir, reference compound] | >12500 | > 12,500 ng/ml | +++ | 0.25 | +++ | >100 | diminished the development of the clinical infectious process | 0 | no plaque |  |  |  |  |  |  |  | 
2 | C=C(C)[C@@H]1CC[C@]2(CO)CC[C@]3(C)[C@H](CC[C@@H]4[C@@]5(C)CC[C@H](O)C(C)(C)[C@@H]5CC[C@]43C)[C@@H]12 [Betulin, lup-20(29)-ene-3β, 28-diol, reference compound] |  |  | + | 0.125 (≈ 0.282 µM) | + | 0.0141 (≈ 0.0318 µM) | diminished the development of the clinical infectious process |  |  | more toxic | − | 250 (≈ 0.565 µM) | significant anti HSV-1 activity | significant anti HSV-2 activity | 0.0142 (≈ 0.0321 µM) | 0 | no plaque
